Experiments:
dd strain male mice = assay: Acute toxicity, oral administration, deaths counted over one week; format: in vivo; details: Dose: 1500mg/kg, observed for a week
[1] = tested on: carrageenin-induced paw edema; assay: Effect on carrageenin-induced paw edema (anti-inflammatory effect), method of Winter et al.; format: in vivo, Wistar strain male rats; details: Rattus norvegicus, oral, 1 hour before 1% carrageenin, paw volume 3 hours after injection, Wistar male rats, read-out: Anti-inflammatory Effect Inhibition Rate (%)
Procedure: (2) Effect on carrageenin-induced paw edema (Anti-inflammatory Effect)
This test was conducted according to the method by Winter et al.[Winter C.A. et al.: Proc. Soc. Exptl.
As the animals to be tested, groups of 5 - 10 Wistar strain male rats weighing 140 ± 10 g were used, and a 1% carrageenin solution was employed as the phlogistic agent. The compound to be tested was - orally administered to the animals, and an hour later, 0.1 ml of the phlogistic agent was injected subcutaneously to the right hind paw, to induce edema.
The volume of the paw was measured before the injection of the phlogistic agent and 3 hours after the injection, and based on these volume measurements, the edema rate was calculated from the following equation: [formula]
Vn: The volume before the phlogistic agent treatment.
Vt: The volume after the phlogistic agent treatment.
The effect was determined, compared with the control group, the group to which the compound to be tested was not administered and expressed in terms of the inhibition rate of edema. The inhibition rate was calculated from the following equation.
Ec: The average edema rate of the control group.
Et: The average edema rate of the group to which the compound to be tested was administered...

acetic acid writhing = assay: Analgesic effect, acetic acid writhing method (Koster et al.); format: in vivo, dd strain male mice; details: Mus musculus, oral, 60 minutes before 0.7% acetic acid i.p., number of writhes, dd male mice, read-out: Analgesic Effect Inhibition Rate (%)
Procedure: (3) Analgesic Effect (Acetic Acid Writhing Method) This was done according to the method by Koster, et al Federation Proc. 18, 412 (1959)]. The animals to be tested were groups of 10 dd strain male nice weighing 20 ± 1 g. The compound to be tested .was administered orally, and 60 minutes after the administration, 0.2 ml of a 0.7% acetic acid solution ,vas administered intraperitoneally. For a period of 10 minutes from […] minutes after the administration of said acetic acid solution, the number of writhes was measured and the average number was determined. The unhibition rate (%) was calculated from the following equation. [formula] Ec: The average number of writhes in the control group. Et: The average number of writhes in the group to which the compound to be tested was administered.

SMILES	Acute Toxicity Nos. of Deaths/ Nos. of Tests (dd strain male mice)	inhibition in vivo at 100 mg/kg [1] [%]	inhibition in vivo at 100 mg/kg (acetic acid writhing) [%]
COc1ccc(C(=O)Nc2cccc(F)c2)cc1N [Compound 1, 3-Amino-3'-fluoro-4-methoxy-benzanilide]	0/6	64.3	41.9
COc1ccc(C(=O)Nc2cccc(C(F)(F)F)c2)cc1N [Compound 2, 3-Amino-3'-trifluoro-methyl-4-benzanilide]	0/6	38.8	48.8
COc1ccc(C(=O)Nc2cc(C(F)(F)F)cc(C(F)(F)F)c2)cc1N [Compound 3, 3-Amino-3',5'-ditrifluoro-methyl-4-methoxy-benzanilide]	0/6	16.9	24.6
COc1ccc(C(=O)Nc2ccc(Cl)cc2C(F)(F)F)cc1N [Compound 4, 3-Amino-2'-trifluoro-methyl-4'-chloro-4-methoxy-benzanilide]	0/6	8.7	34.8
COc1ccc(C(=O)Nc2cc(C(F)(F)F)ccc2Cl)cc1N [Compound 5, 3-Amino-2'-chloro-5'-tri-fluoromethyl-4-methoxy-benzanilide]	0/6	0	52.3
COc1ccc(C(=O)Nc2ccccc2)cc1N [Compound 6, 3-Amino-4-methoxy-benzanilide]	0/5	55.9	43.4
COc1ccc(C(=O)Nc2ccc(Cl)cc2Cl)cc1N [Compound 7, 3-Amino-2',4'-dichloro-4-methoxy-benzanilide]	0/6	5.5	40.2
COc1ccc(C(=O)Nc2c(C)cccc2C)cc1N [Compound 8, 3-Amino-2',6'-dimethyl-4-methoxy-benzanilide]	0/6	19.5	45.7
CC(C)Cc1ccc(C(C)C(=O)O)cc1 (stereo not drawn) [Ibuprofen, α-methyl-4-(2-methylpropyl) benzene acetic acid, reference compound]	2/5	68.4	16.3
COc1cc(C)nc(-n2nc(C)cc2OC)n1 [Mepirizole, 4-methoxy-2-(5-methoxy-3-meLhylpyrazol-1-yl)-6-methylpyrimidine, reference compound]	2/2	29.2	44.6
